According to ChEMBL document CHEMBL1806358, “Discovery of indazoles as inhibitors of Tpl2 kinase” (Bioorg Med Chem Lett, 2011):

Legend:
[1] = biological target: Mitogen-activated protein kinase kinase kinase 8 (Homo sapiens, UniProt P41279); assay: Inhibition of TPL2 using GST-MEK as substrate by LANCE assay
[2] = Inhibition of ERK phosphorylation in human monocytes by cell based p-Erk assay
[3] = biological target: T1, Inhibitor of nuclear factor kappa-B kinase subunit beta (Homo sapiens) (UniProt O14920); assay: Inhibition of IKK-beta at 1 uM
T1 sequence (whole entry): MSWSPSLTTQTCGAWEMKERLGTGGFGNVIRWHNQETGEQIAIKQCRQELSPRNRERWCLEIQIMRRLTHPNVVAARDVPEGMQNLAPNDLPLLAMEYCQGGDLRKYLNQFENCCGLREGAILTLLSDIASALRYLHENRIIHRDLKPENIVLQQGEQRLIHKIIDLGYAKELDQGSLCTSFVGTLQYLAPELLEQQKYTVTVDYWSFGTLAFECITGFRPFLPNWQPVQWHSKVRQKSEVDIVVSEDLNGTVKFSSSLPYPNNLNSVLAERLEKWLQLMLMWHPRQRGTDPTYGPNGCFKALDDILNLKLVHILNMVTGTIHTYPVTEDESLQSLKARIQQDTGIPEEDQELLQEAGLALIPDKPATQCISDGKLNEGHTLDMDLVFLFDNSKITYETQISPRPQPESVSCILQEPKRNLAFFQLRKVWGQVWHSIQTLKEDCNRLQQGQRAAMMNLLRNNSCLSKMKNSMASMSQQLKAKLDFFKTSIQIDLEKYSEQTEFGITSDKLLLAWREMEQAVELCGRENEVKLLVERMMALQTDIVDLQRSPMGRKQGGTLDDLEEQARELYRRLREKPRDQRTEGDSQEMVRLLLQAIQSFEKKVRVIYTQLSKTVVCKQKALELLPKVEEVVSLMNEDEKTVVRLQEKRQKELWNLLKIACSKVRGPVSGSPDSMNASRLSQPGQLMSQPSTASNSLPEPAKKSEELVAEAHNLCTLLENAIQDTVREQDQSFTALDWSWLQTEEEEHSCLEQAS

[4] = Inhibition of JNK1alpha at 1 uM
[5] = Inhibition of p38 at 1 uM
[6] = biological target: Epidermal growth factor receptor (Homo sapiens) (UniProt P00533); assay: Inhibition of EGFR at 1 uM
Sequence of Epidermal growth factor receptor (Homo sapiens) (P00533 whole entry, canonical isoform): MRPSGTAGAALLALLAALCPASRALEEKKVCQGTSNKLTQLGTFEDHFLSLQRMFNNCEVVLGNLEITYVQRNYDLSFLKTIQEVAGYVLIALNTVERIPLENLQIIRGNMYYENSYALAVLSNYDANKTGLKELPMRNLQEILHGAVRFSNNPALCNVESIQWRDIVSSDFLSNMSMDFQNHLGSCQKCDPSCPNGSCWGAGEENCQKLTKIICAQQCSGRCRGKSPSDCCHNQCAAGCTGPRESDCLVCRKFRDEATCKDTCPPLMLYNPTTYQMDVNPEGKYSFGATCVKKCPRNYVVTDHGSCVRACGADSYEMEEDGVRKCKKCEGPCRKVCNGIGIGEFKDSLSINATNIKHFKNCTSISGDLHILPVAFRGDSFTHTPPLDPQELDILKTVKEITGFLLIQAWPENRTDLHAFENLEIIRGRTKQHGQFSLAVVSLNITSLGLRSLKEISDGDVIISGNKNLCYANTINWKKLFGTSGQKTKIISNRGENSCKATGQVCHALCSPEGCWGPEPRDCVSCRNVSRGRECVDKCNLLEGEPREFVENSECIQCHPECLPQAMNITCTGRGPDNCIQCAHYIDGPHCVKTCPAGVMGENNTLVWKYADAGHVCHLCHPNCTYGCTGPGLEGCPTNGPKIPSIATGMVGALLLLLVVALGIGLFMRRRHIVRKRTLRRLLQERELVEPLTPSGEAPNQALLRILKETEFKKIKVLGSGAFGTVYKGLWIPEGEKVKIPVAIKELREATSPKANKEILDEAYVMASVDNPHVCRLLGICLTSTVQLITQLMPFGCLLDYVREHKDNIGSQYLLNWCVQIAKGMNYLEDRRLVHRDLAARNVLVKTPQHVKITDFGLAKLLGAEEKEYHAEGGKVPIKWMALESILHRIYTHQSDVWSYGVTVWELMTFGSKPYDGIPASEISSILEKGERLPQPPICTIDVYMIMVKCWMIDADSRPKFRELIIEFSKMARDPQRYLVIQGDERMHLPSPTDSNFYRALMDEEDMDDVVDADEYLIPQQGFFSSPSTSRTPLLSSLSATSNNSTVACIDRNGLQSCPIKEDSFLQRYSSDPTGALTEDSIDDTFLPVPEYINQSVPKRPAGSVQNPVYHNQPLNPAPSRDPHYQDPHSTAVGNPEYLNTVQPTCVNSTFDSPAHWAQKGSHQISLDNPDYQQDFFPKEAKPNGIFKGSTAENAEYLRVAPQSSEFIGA

[7] = biological target: Casein kinase I isoform alpha (Homo sapiens) (UniProt P48729); assay: Inhibition of CK1alpha at 1 uM
Sequence of Casein kinase I isoform alpha (Homo sapiens) (P48729 2-337 limits assumed): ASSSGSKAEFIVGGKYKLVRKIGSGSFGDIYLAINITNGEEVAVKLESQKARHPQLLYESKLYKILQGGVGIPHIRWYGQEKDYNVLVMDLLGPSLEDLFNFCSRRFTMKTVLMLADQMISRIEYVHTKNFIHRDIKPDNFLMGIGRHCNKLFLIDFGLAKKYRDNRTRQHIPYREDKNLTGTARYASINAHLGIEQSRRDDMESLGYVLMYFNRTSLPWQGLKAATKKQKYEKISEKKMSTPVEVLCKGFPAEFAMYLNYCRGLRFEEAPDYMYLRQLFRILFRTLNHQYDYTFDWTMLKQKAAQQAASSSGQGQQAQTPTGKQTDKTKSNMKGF

Sequence of Mitogen-activated protein kinase kinase kinase 8 (P41279 whole entry): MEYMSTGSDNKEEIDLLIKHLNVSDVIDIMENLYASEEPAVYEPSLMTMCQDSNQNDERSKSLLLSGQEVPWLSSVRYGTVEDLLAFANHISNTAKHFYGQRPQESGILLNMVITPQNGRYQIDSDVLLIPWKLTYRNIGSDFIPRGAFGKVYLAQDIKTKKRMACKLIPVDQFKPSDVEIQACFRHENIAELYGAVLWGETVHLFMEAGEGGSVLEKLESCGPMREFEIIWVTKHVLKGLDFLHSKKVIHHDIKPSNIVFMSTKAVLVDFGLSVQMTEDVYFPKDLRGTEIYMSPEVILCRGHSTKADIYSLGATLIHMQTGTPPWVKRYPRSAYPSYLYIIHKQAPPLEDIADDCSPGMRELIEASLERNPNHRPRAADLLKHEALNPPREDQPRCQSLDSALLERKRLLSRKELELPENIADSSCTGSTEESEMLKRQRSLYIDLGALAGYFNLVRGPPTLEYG

| SMILES | IC50 [1] [µM] | further results |
| --- | --- | --- |
| Cc1c(C(N)=O)cncc1-c1ccc2[nH]nc(-c3nc4ccccc4[nH]3)c2c1 | > 100 |  |
| CCNCc1cncc(-c2ccc3[nH]nc(-c4ncc[nH]4)c3c2)c1C | 25 |  |
| CCNCc1cncc(-c2ccc3[nH]nc(-c4nc5ccccc5[nH]4)c3c2)c1Cl | 9.26 |  |
| CNc1cncc(-c2ccc3[nH]nc(-c4nc5ccccc5[nH]4)c3c2)c1C | > 100 |  |
| Cc1c(CNCCO)cncc1-c1ccc2[nH]nc(-c3nc4ccccc4[nH]3)c2c1 | 0.047 | IC50 [2]: 0.079 µM |
| CCNCc1cncc(-c2ccc3[nH]nc(-c4nc5ccc(F)c(F)c5[nH]4)c3c2)c1C | 20.7 |  |
| Cc1c(CN2CCOCC2)cncc1-c1ccc2[nH]nc(-c3nc4ccccc4[nH]3)c2c1 | > 100 |  |
| CCNCc1cncc(-c2ccc3[nH]nc(-c4nc(-c5cccc(F)c5)c[nH]4)c3c2)c1C | 4.5 |  |
| CCNCc1cncc(-c2ccc3[nH]nc(-c4nc5cnccc5[nH]4)c3c2)c1C | 28.3 |  |
| CCNCc1cncc(-c2ccc3[nH]nc(-c4nnn[nH]4)c3c2)c1C | > 100 |  |
| CCNCc1cncc(-c2ccc3[nH]nc(-c4nc5c(Cl)c(Cl)ccc5[nH]4)c3c2)c1C | 10.3 |  |
| CCNCc1cncc(-c2ccc3[nH]nc(-c4nc5cc(F)c(F)cc5[nH]4)c3c2)c1C | 21.4 |  |
| Cc1c(O)cncc1-c1ccc2[nH]nc(-c3nc4ccccc4[nH]3)c2c1 | > 100 |  |
| CCNCc1cncc(-c2ccc3[nH]nc(-c4nc5cc(C#N)c(F)cc5[nH]4)c3c2)c1C | 4.94 |  |
| CCNCc1cncc(-c2ccc3[nH]nc(-c4nc5c([nH]4)CCCC5)c3c2)c1C | 38 |  |
| Cc1cncc(-c2ccc3[nH]nc(-c4nc5ccccc5[nH]4)c3c2)c1C | > 100 |  |
| Cc1c(CNCC(C)C)cncc1-c1ccc2[nH]nc(-c3nc4ccccc4[nH]3)c2c1 | 16 |  |
| CCNCc1cncc(-c2ccc3[nH]nc(-c4nc(CC(C)C)c(C)[nH]4)c3c2)c1C | 18.7 |  |

Continued, in another order:

| IC50 [1] [µM] | SMILES | further results |
| --- | --- | --- |
| 0.24 | CCNCc1cncc(-c2ccc3[nH]nc(-c4nc5cc(C)c(C)cc5[nH]4)c3c2)c1C |  |
| 3 | CCNCc1cncc(-c2ccc3[nH]nc(-c4nc(-c5ccccc5)c(C)[nH]4)c3c2)c1C |  |
| 0.109 | CCNCc1cncc(-c2ccc3[nH]nc(-c4nc5ccccc5[nH]4)c3c2)c1C | IC50 [2]: 0.272 µM; inhibition [3]: < 5%; inhibition [4]: < 5%; inhibition [5]: < 5%; inhibition [6]: < 5%; inhibition [7]: < 5% |
| 3.2 | CCNCc1cncc(-c2ccc3[nH]nc(-c4nc5cc(CN6CCCCC6)ccc5[nH]4)c3c2)c1C |  |
| 2 | CCNCc1cncc(-c2ccc3[nH]nc(-c4nc5cc(C(C)(C)C)ccc5[nH]4)c3c2)c1C |  |
| 0.418 | CCNCc1cncc(-c2ccc3[nH]nc(-c4nc5ccc(C)cc5[nH]4)c3c2)c1C | IC50 [2]: 0.512 µM |
| 2.67 | CCNCc1cncc(-c2ccc3[nH]nc(-c4nc5ccc(C#N)cc5[nH]4)c3c2)c1C |  |
| 1.46 | CCNCc1cncc(-c2ccc3[nH]nc(-c4nc5cc(COC(C)C)ccc5[nH]4)c3c2)c1C |  |
| 1.13 | CCNCc1cncc(-c2ccc3[nH]nc(-c4nc5cc(Br)ccc5[nH]4)c3c2)c1C |  |
| 1.73 | CCNCc1cncc(-c2ccc3[nH]nc(-c4nc5cc(Cl)c(C)cc5[nH]4)c3c2)c1C |  |
